In US9145386B2, “SOD-imitating metal complexes” (UNIVERSITAT DE VALENCIA, priority 2009, dated 2015):

Experiments:
[1] = Potentiometric determination of protonation constants; type: physicochemical; settings: NaClO4 0.15 mol·dm^−3, 298.1±0.1 K; for logarithm of protonation constant, L + H = HL: standard deviation of last figure in brackets
Procedure: (§1) Potentiometric measurements were performed to determine the acid-base behaviour of the new family of compounds, yielding the overall protonation constants required for the subsequent study on the formation of metal complexes with Cu(II), Fe(II) and Mn(II).
The numbers in brackets indicate the standard deviation of the last significant figure. ^a) The overall basicity constant is β=ΣKHjL

[2] = Stability constants for the formation of metal complexes with Mn2+ (potentiometry); type: physicochemical
Procedure: as §1
The evaporation was in fact carried out in flasks, in contact with atmospheric oxygen.

logarithm of protonation constant, H3L + H = H4L [1]	stability constant, Mn + L + H2O = MnL(OH) + H^+ [2]	stability constant, MnL + OH = MnL(OH) [2]	Compound	Log β (overall basicity constant) [1]	logarithm of protonation constant, H2L + H = H3L [1]	logarithm of protonation constant, HL + H = H2L [1]	logarithm of protonation constant, L + H = HL [1]	stability constant (log K), Mn + L = MnL [2]	stability constant, Mn + L + H = HMnL [2]	stability constant, MnL + H = HMnL [2]
2.82(1)	−1.36(1)	3.45(1)	c1cc2nc(c1)CNCCN(CCNCc1ccnc3ccccc13)CCNC2 [Compound 1]	27.00(1)	5.94(1)	8.31(1)	9.93(1)	8.91(1)		
			c1cc2nc(c1)CNCCN(CCNCc1ccc3ccccc3n1)CCNC2 [Compound 2]	24.66(2)	6.23(1)	8.40(1)	10.03(1)	11.08(1)	16.23(6)	5.15(2)
